In the NIST ThermoML archive (doi:10.1016/j.jct.2012.03.002):
Numbers after ± are expanded uncertainties.

How the values were obtained:
[1] = refractive index (Na D-line) (dimensionless); conditions: 298.15 K; 101 kPa; Liquid; Standard Abbe refractometry
[2] = 298.15 K, 101 kPa, Liquid; for viscosity: Capillary tube (Ostwald / Ubbelohde) method; for mass density: Vibrating tube method
[3] = wn = mass fraction of the nth substance listed; conditions: 298.15 K, 101 kPa, Liquid; for viscosity: Capillary tube (Ostwald / Ubbelohde) method; for mass density: Vibrating tube method
[4] = refractive index (Na D-line) (dimensionless); wn = mass fraction of the nth substance listed; conditions: 298.15 K, 101 kPa, Liquid, Standard Abbe refractometry
[5] = refractive index (Na D-line) (dimensionless); cn = amount concentration of the nth substance listed, in mol/dm3; conditions: 298.15 K, 101 kPa, Liquid, Standard Abbe refractometry
[6] = cn = amount concentration of the nth substance listed, in mol/dm3; conditions: 298.15 K, 101 kPa, Liquid, Alternating current cell with electrodes

O=[N+]([O-])c1ccccc1 [nitrobenzene]
Conditions	mass density [kg/m3]	refractive index	viscosity [mPa·s]
[1]	–	1.5493 ± 0.0008	–
[2]	1197.7 ± 1.1	–	1.809 ± 0.039

C[N+](=O)[O-] [nitromethane]
Conditions	mass density [kg/m3]	refractive index	viscosity [mPa·s]
[1]	–	1.3799 ± 0.0009	–
[2]	1128.8 ± 1.4	–	0.614 ± 0.014

O=[N+]([O-])c1ccccc1 [nitrobenzene] + C[N+](=O)[O-]
w2 = 0
Conditions	mass density [kg/m3]	refractive index	viscosity [mPa·s]
[3]	1197.7 ± 1.1	–	1.809 ± 0.039
[4]	–	1.5493 ± 0.0008	–

C[N+](=O)[O-] [nitromethane] + [Na+].c1ccc([B-](c2ccccc2)(c2ccccc2)c2ccccc2)cc1
Conditions	refractive index
[5], c2 = 0	1.3799 ± 0.0009

O=[N+]([O-])c1ccccc1 [nitrobenzene] + [Na+].c1ccc([B-](c2ccccc2)(c2ccccc2)c2ccccc2)cc1
Conditions	refractive index
[5], c2 = 0	1.5493 ± 0.0008

[Na+].c1ccc([B-](c2ccccc2)(c2ccccc2)c2ccccc2)cc1 [sodium tetraphenylboron] + C[N+](=O)[O-]
Conditions	molar conductivity [S·m2/mol]	refractive index
[5], c1 = 0.0044	–	1.3803 ± 0.0009
[5], c1 = 0.0178	–	1.3811 ± 0.0009
[5], c1 = 0.0313	–	1.3819 ± 0.0009
[5], c1 = 0.0449	–	1.3826 ± 0.0009
[5], c1 = 0.0586	–	1.3837 ± 0.0009
[6], c1 = 0.001163	0.008583 ± 6e-06	–
[6], c1 = 0.002132	0.008413 ± 6e-06	–
[6], c1 = 0.002952	0.008296 ± 6e-06	–
[6], c1 = 0.003655	0.008195 ± 6e-06	–
[6], c1 = 0.004797	0.008057 ± 6e-06	–
[6], c1 = 0.005686	0.007972 ± 6e-06	–
[6], c1 = 0.006397	0.007909 ± 6e-06	–
[6], c1 = 0.006701	0.007878 ± 6e-06	–
[6], c1 = 0.007231	0.007825 ± 6e-06	–
[6], c1 = 0.007676	0.007789 ± 6e-06	–
[6], c1 = 0.008055	0.00776 ± 6e-06	–
[6], c1 = 0.008382	0.007739 ± 6e-06	–

C[N+](=O)[O-] [nitromethane] + O=[N+]([O-])c1ccccc1
Conditions	mass density, [3] [kg/m3]	refractive index, [4]	viscosity, [3] [mPa·s]
w1 = 0.25	1178.4 ± 1.1	1.5051 ± 0.0008	0.918 ± 0.02
w1 = 0.5	1161.1 ± 1.2	1.4623 ± 0.0008	0.827 ± 0.018
w1 = 0.75	1144.7 ± 1.3	1.4201 ± 0.0009	0.745 ± 0.017
w1 = 1	1128.8 ± 1.4	1.3799 ± 0.0009	0.614 ± 0.014

[Na+].c1ccc([B-](c2ccccc2)(c2ccccc2)c2ccccc2)cc1 [sodium tetraphenylboron] + O=[N+]([O-])c1ccccc1
Conditions	molar conductivity [S·m2/mol]	refractive index
[5], c1 = 0.0042	–	1.5498 ± 0.0008
[5], c1 = 0.0168	–	1.5506 ± 0.0008
[5], c1 = 0.0295	–	1.5511 ± 0.0008
[5], c1 = 0.0423	–	1.5518 ± 0.0008
[5], c1 = 0.0552	–	1.5526 ± 0.0008
[6], c1 = 0.001579	0.00273 ± 6e-06	–
[6], c1 = 0.002187	0.002689 ± 6e-06	–
[6], c1 = 0.002707	0.00266 ± 6e-06	–
[6], c1 = 0.003159	0.002634 ± 6e-06	–
[6], c1 = 0.003902	0.002597 ± 6e-06	–
[6], c1 = 0.004489	0.002572 ± 6e-06	–
[6], c1 = 0.004964	0.002553 ± 6e-06	–
[6], c1 = 0.005966	0.002516 ± 6e-06	–
[6], c1 = 0.006419	0.0025 ± 6e-06	–
[6], c1 = 0.006844	0.002482 ± 6e-06	–
[6], c1 = 0.00722	0.002471 ± 6e-06	–
[6], c1 = 0.007448	0.002463 ± 6e-06	–
